pIC50: −log10 of the molar value. Like-named read-outs stand apart in the source and are kept apart here.
Experiments:
H2122 = assay: Cell viability dose-response, H2122; type: cell-based, human; details: for IC50: NCI-H2122, Tables 3 and 4, read-out: IC50 (uM) vs indicated non-small cell lung cancer cell line H2122
In short: (§1)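 Viability read as total ATP (Cell Titer Glo) following 4 days' compound exposure, with IC50 derived from dose-response curves. Duplicate 12-point series, top concentration 50 micromolar with 3-fold steps, on cells seeded at 15% confluence in RPMI-1640, 5% FBS, 2 mM L-glutamine.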

[1] = tested on: 12 lung adenocarcinoma cell lines; assay: Proliferation of the panel of 12 lung adenocarcinoma cell lines; type: cell-based, human; details: Homo sapiens; read-out: IC50 against 10 other cell lines, including the normal line
Protocol: (§2) FIG. 6A. […] Cell viability is plotted vs. compound concentration. Compound was added to cells plated at 15% confluence in 96-well plates in RPMI-1640 media supplemented with 5% Fetal Bovine Serum and 2 mM L-Glutamine. After 4 days of incubation, ATP levels were measured using Cell Titer Glo (Promega). Data are presented as the average of 2 replicates ±SEM.
To discover selective agents, twelve cell lines of diverse genotype were selected for analysis. 108 lung cancer cell lines were initially clustered into six groups based on mRNA expression of genes that underwent frequent copy number variation. Two cell lines were chosen from each group for high throughput chemical screening. All 12 of the chosen cell lines were derived from lung adenocarcinomas, eliminating both lineage and histology as confounders. None of the cell lines chosen for screening harbored EGFR mutations or ALK rearrangements, so that the final set represented a collection of diverse lung adenocarcinoma genotypes for which there are no targeted therapy.
The proliferative impact of each compound in the library was assayed by analyzing total ATP four days after administration of 2.5 μM in a single well. This first pass yielded 15,843 toxins defined as a compound where ATP levels were […] three standard deviations below the mean for at least one cell line. For each of these putative toxins, the average effect on proliferation was retested on each cancer cell line and a non-cancerous immortalized HBEC line (control), yielding a confirmation dataset.
In addition, N-acyl benzothiazoles was also discovered, such as 4-amino-N-(6-methoxybenzo[d]thiazol-2-yl)benzamide (ATB). We compared the proliferation of 12 lung adenocarcinoma cell lines and three HBEC lines after the addition of ATB.
We subsequently synthesized various derivatives that are both selective and potent (Tables 1 and 2). One leading candidate is a benzothiazole, SW202857, that inhibits proliferation in three of 12 adenocarcinoma cell lines at concentrations less than 10 nM.

H1819 = assay: Cell viability dose-response, H1819; type: cell-based, human; details: for pIC50: 3-fold increments, in duplicate, read-out: toxicity data, H1819; for IC50: NCI-H1819, Tables 3 and 4, read-out: IC50 (uM) vs indicated non-small cell lung cancer cell line H1819
In short: as §1

HCC44 = assay: Cell viability dose-response, HCC44; type: cell-based, human; details: Homo sapiens; for pIC50: HCC44, 12-point dose-response starting at 50 micromolar, 3-fold increments, in duplicate, read-out: toxicity data, HCC44; for IC50: HCC44, Tables 3 and 4, read-out: IC50 (uM) vs indicated non-small cell lung cancer cell line HCC44
In short: (§3)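 Steps: seed cells to 15% confluence in RPMI-1640 supplemented with 5% fetal bovine serum and 2 mM glutamine; add compound across a concentration range; incubate 4 days; measure total ATP with CellTiter-Glo. IC50 is derived from the curve.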

HCC95 = assay: Cell viability dose-response, HCC95; type: cell-based; details: Homo sapiens; for pIC50: 12-point dose-response starting at 50 micromolar, 3-fold increments, in duplicate, read-out: toxicity data, HCC95; for IC50: Tables 3 and 4, read-out: IC50 (uM) vs indicated non-small cell lung cancer cell line HCC95
Protocol: as §2
(§4) Selectivity may be measured by the half maximal inhibitory concentration (IC50), which, as used herein, is a measure of the effectiveness of a compound in killing cells. This quantitative measure indicates how much of a particular compound is needed to kill a particular cell population by half (e.g., as indicated by the amount of ATP). […] The IC50 can be determined by constructing a dose-response curve. The lower the IC50, the higher the potency, and the greater the difference between IC50 values for different cell lines (e.g., sensitive lines vs. insensitive lines, and sensitive lines vs. normal lines) the greater the selectivity. […]
(§5) With this information, we synthesized and tested a series of small molecules derived in conception from the oxalamide and chromone scaffold including N-acyl ureas, as shown in Tables 6-8. Each compound was tested in a 12-point dose-response study starting at 50 micromolar and decreasing in 3-fold increments to sub-nanomolar concentrations, in duplicate. Additionally, one or more additional cell line was tested in the same way.

H460 = assay: Cell viability dose-response, H460; type: cell-based; details: Homo sapiens, NCI-H460; for pIC50: 12-point dose-response starting at 50 micromolar, 3-fold increments, in duplicate, read-out: toxicity data, H460; for IC50: Tables 3 and 4, read-out: IC50 (uM) vs indicated non-small cell lung cancer cell line H460
Protocol: as §2, §4, §5

H1993 = assay: Cell viability dose-response, H1993; type: cell-based; details: Homo sapiens, NCI-H1993; for pIC50: 12-point dose-response starting at 50 micromolar, 3-fold increments, in duplicate, read-out: toxicity data, H1993; for IC50: Tables 3 and 4, read-out: IC50 (uM) vs indicated non-small cell lung cancer cell line H1993
Protocol: as §2, §4, §5

H2009 = assay: Cell viability dose-response, H2009; type: cell-based, human; details: Homo sapiens, NCI-H2009; for pIC50: 12-point dose-response starting at 50 micromolar, 3-fold increments, in duplicate, read-out: toxicity data, H2009; for IC50: Tables 3 and 4, read-out: IC50 (uM) vs indicated non-small cell lung cancer cell line H2009
In short: as §3

HCC4017 = assay: Cell viability dose-response, HCC4017; type: cell-based, human; details: Homo sapiens; for pIC50: HCC4017, 12-point dose-response starting at 50 micromolar, 3-fold increments, in duplicate, read-out: toxicity data, HCC4017; for IC50: HCC4017, Tables 3 and 4, read-out: IC50 (uM) vs indicated non-small cell lung cancer cell line HCC4017
Protocol: as §2, §4, §5

H1155 = assay: Cell viability dose-response, H1155; type: cell-based; details: Homo sapiens, NCI-H1155; for pIC50: 12-point dose-response starting at 50 micromolar, 3-fold increments, in duplicate, read-out: toxicity data, H1155; for IC50: Tables 3 and 4, read-out: IC50 (uM) vs indicated non-small cell lung cancer cell line H1155
Protocol: as §2, §4, §5

HCC366 = assay: Cell viability dose-response, HCC366; type: cell-based; details: Homo sapiens; for pIC50: 12-point dose-response starting at 50 micromolar, 3-fold increments, in duplicate, read-out: toxicity data, HCC366; for IC50: Tables 3 and 4, read-out: IC50 (uM) vs indicated non-small cell lung cancer cell line HCC366
Protocol: as §2, §4, §5

HBEC30KT = assay: Cell viability (ATP, Cell Titer Glo, 4 days), HBEC30KT; type: cell-based, human; details: Homo sapiens
H1395 = assay: Cell viability dose-response, H1395; type: cell-based; details: Homo sapiens, NCI-H1395; for pIC50: 12-point dose-response starting at 50 micromolar, 3-fold increments, in duplicate, read-out: toxicity data, H1395; for IC50: Tables 3 and 4, read-out: IC50 (uM) vs indicated non-small cell lung cancer cell line H1395
Protocol: as §2, §4, §5

H2073 = assay: Cell viability dose-response, H2073; type: cell-based, human; details: Homo sapiens; for pIC50: NCI-H2073, 12-point dose-response starting at 50 micromolar, 3-fold increments, in duplicate, read-out: toxicity data, H2073; for IC50: NCI-H2073, Tables 3 and 4, read-out: IC50 (uM) vs indicated non-small cell lung cancer cell line H2073
In short: as §3

[2] = Homo sapiens, NCI-H2122, 12-point dose-response starting at 50 micromolar, 3-fold increments, in duplicate, read-out: toxicity data, H2122
[3] = Homo sapiens, NCI-H1819, 12-point dose-response starting at 50 micromolar
[4] = 12-point dose-response starting at 50 micromolar, 3-fold increments, in duplicate, read-out: toxicity data, HBEC30KT
[5] = Tables 3 and 4, read-out: HBEC30KT IC50

Compound	pIC50 (H2122; [2])	pIC50 (H1819; [3])	pIC50 (HCC44)	pIC50 (HCC95)	pIC50 (H460)	pIC50 (H1993)	pIC50 (H2009)	pIC50 (HCC4017)	pIC50 (H1155)	pIC50 (HCC366)	pIC50 (HBEC30KT; [4])	pIC50 (H1395)	pIC50 (H2073)	IC50 (H2122; Homo sapiens)	IC50 (H1819; Homo sapiens)	IC50 (HCC44)	IC50 (HCC95)	IC50 (H460)	IC50 (H1993)	IC50 (H2009)	other results
COc1ccc2nc(NC(=O)c3ccc(N)cc3)sc2c1 [ATB, 4-amino-N-(6-methoxybenzo[d]thiazol-2-yl)benzamide]	–	–	–	–	–	–	–	–	–	–	–	–	–	–	–	–	–	–	–	–	pIC50 (H2122; Homo sapiens, NCI-H2122, read-out: IC50 against the most sensitive cell line (H2122)): 7.32; pIC50 [1]: < 6.00
COc1ccc(CCNC(=O)C(=O)Nc2ccc(C)c(C)c2)cc1 [SW027949]	6.15	≤ 4.30	≤ 4.30	6.77	5.88	4.30	≤ 4.30	≤ 4.30	4.30	4.30	4.38	4.30	≤ 4.30	–	–	–	–	–	–	–	–
COc1ccc(CCNC(=O)C(=O)Nc2ccc(Cl)cc2)cc1 [SW027951]	6.82	≤ 4.30	≤ 4.30	7.05	5.87	4.30	≤ 4.30	≤ 4.30	4.30	4.30	4.30	4.30	≤ 4.30	–	–	–	–	–	–	–	–
COc1ccc(CCNC(=O)C(=O)Nc2cccc(Br)c2)cc1 [SW027952]	–	–	≤ 4.30	6.62	4.30	4.30	4.95	≤ 4.30	4.30	4.30	4.70	4.30	4.76	–	–	–	–	–	–	–	pIC50 (H2122; 12-point dose-response starting at 50 micromolar, 3-fold increments, in duplicate, read-out: toxicity data, H2122): 5.98; pIC50 (H1819; 12-point dose-response starting at 50 micromolar): ≤ 4.30
NC(=O)c1c(NC(=O)c2sc3ccccc3c2Cl)sc2c1CCCCC2 [SW155113]	–	–	–	–	–	–	–	–	–	–	–	–	–	0.36 µM	14 µM	27 µM	100 µM	29 µM	8.1 µM	32 µM	IC50 (HCC4017): 23 µM; IC50 (H1155): 14.5 µM; IC50 (HCC366): 22.5 µM; pIC50 (HBEC30KT; [5]): 4.48; IC50 (H1395): 13.4 µM; IC50 (H2073): 6 µM
COc1ccc2nc(NC(=O)c3ccc(OCc4ccccc4)cc3)sc2c1 [SW202773-1]	–	–	–	–	–	–	–	–	–	–	–	–	–	0.0431 µM	42.9 µM	0.122 µM	0.163 µM	0.157 µM	21.7 µM	16.6 µM	IC50 (HCC4017): 21.1 µM; IC50 (H1155): 23.6 µM; IC50 (HCC366): 41.8 µM; pIC50 (HBEC30KT; [5]): 4.60; IC50 (H1395): 25.9 µM; IC50 (H2073): 0.268 µM

Reference: patent publication US9789096B2, “Methods and compositions for selective and targeted cancer therapy” (Board of Regents of the University of Texas System, priority 2013, dated 2017)
